Results taken from the supplement of paper PMC12698765.
Counter-ions that a name gives are not always drawn. ± gives the standard deviation of the averaged measurements.

Columns and labels:
[1] = tested on: 409B2 hiPSC (iCRISPR Cas9, FRMD7 editing); assay: cell survival relative to solvent control (fold (ratio to mock)); higher = more surviving cells
Method: (§1)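 Subset screen of 55 drugs tested at 5 concentrations around the effective screening dose, in 409B2 iCRISPR Cas9 hiPSCs editing FRMD7 with a ssDNA donor. Drugs were applied for 24 h. Viability was read by resazurin and editing outcomes by amplicon sequencing (HDR, NHEJ <2 bp microhomology, MMEJ ≥2 bp microhomology). Values are relative to solvent mock controls; two biological replicates.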

[2] = tested on: 409B2 hiPSC (iCRISPR Cas9, FRMD7 editing); assay: NHEJ-attributed indel frequency relative to solvent control (fold (ratio to mock)); higher = more NHEJ outcomes
Method: as §1

[3] = tested on: 409B2 hiPSC (iCRISPR Cas9, FRMD7 editing); assay: MMEJ-attributed deletion frequency relative to solvent control (fold (ratio to mock)); higher = more MMEJ outcomes
Method: as §1

[4] = tested on: 409B2 hiPSC (iCRISPR Cas9, FRMD7 editing); assay: HDR (precise edit) frequency relative to solvent control (fold (ratio to mock)); higher = more homology-directed repair outcomes
Method: as §1

Structure (SMILES): C[C@@H]1O[C@@H](O[C@H]2C[C@@H](O)[C@]3(CO)[C@H]4[C@H](O)C[C@]5(C)[C@@H](C6=CC(=O)OC6)CC[C@]5(O)[C@@H]4CC[C@]3(O)C2)[C@H](O)[C@H](O)[C@H]1O [Ouabain Octahydrate] (in H2O)
- cell survival ([1]; 2000 nM): 0.0512
- cell survival ([1]; 5000 nM): 0.0777
- cell survival ([1]; 10000 nM): 0.0589
- cell survival ([1]; 20000 nM): 0.0655
- cell survival ([1]; 50000 nM): 0.585
- NHEJ-attributed indel frequency ([2]; 2000 nM): 0.523 ± 0.026
- NHEJ-attributed indel frequency ([2]; 5000 nM): 0.539 ± 0.1
- NHEJ-attributed indel frequency ([2]; 10000 nM): 0.435 ± 0.13
- NHEJ-attributed indel frequency ([2]; 20000 nM): 0.392 ± 0.093
- NHEJ-attributed indel frequency ([2]; 50000 nM): 0.736 ± 0.38
- MMEJ-attributed deletion frequency ([3]; 2000 nM): 3.06 ± 0.43
- MMEJ-attributed deletion frequency ([3]; 5000 nM): 2.82 ± 1.1
- MMEJ-attributed deletion frequency ([3]; 10000 nM): 2.58 ± 0.43
- MMEJ-attributed deletion frequency ([3]; 20000 nM): 2.31 ± 0.4
- MMEJ-attributed deletion frequency ([3]; 50000 nM): 1.87 ± 1.1
- HDR ([4]; 2000 nM): 0.0693 ± 0.021
- HDR ([4]; 5000 nM): 0.0683 ± 0.03
- HDR ([4]; 10000 nM): 0.0814 ± 0.045
- HDR ([4]; 20000 nM): 0.068 ± 0.013
- HDR ([4]; 50000 nM): 0.505 ± 0.64

Structure (SMILES): CC[C@H](CO)Nc1nc(NCc2ccccc2)c2ncn(C(C)C)c2n1 [Roscovitine (Seliciclib,CYC202)] (in DMSO)
- cell survival ([1]; 20 nM): 1.04
- cell survival ([1]; 50 nM): 1.14
- cell survival ([1]; 100 nM): 0.963
- cell survival ([1]; 200 nM): 0.955
- cell survival ([1]; 500 nM): 1.17
- NHEJ-attributed indel frequency ([2]; 20 nM): 1.004 ± 0.0097
- NHEJ-attributed indel frequency ([2]; 50 nM): 1 ± 0.011
- NHEJ-attributed indel frequency ([2]; 100 nM): 0.992 ± 0.013
- NHEJ-attributed indel frequency ([2]; 200 nM): 0.995 ± 0.037
- NHEJ-attributed indel frequency ([2]; 500 nM): 1 ± 0.021
- MMEJ-attributed deletion frequency ([3]; 20 nM): 0.952 ± 0.12
- MMEJ-attributed deletion frequency ([3]; 50 nM): 0.912 ± 0.082
- MMEJ-attributed deletion frequency ([3]; 100 nM): 0.943 ± 0.021
- MMEJ-attributed deletion frequency ([3]; 200 nM): 0.943 ± 0.18
- MMEJ-attributed deletion frequency ([3]; 500 nM): 1 ± 0.058
- HDR ([4]; 20 nM): 1.06 ± 0.024
- HDR ([4]; 50 nM): 0.983 ± 0.017
- HDR ([4]; 100 nM): 1.08 ± 0.043
- HDR ([4]; 200 nM): 1.02 ± 0.043
- HDR ([4]; 500 nM): 1.11 ± 0.049

Structure (SMILES): Cc1ccc(C(=O)N(CCCN)[C@@H](c2nc3cc(Cl)ccc3c(=O)n2Cc2ccccc2)C(C)C)cc1 (in DMSO)
- cell survival ([1]; 0.2 nM): 1.07
- cell survival ([1]; 0.5 nM): 1.34
- cell survival ([1]; 1 nM): 1.15
- cell survival ([1]; 2 nM): 1.2
- cell survival ([1]; 5 nM): 0.682
- NHEJ-attributed indel frequency ([2]; 0.2 nM): 0.957 ± 0.046
- NHEJ-attributed indel frequency ([2]; 0.5 nM): 0.989 ± 0.019
- NHEJ-attributed indel frequency ([2]; 1 nM): 0.9925 ± 0.0038
- NHEJ-attributed indel frequency ([2]; 2 nM): 1.012 ± 0.0086
- NHEJ-attributed indel frequency ([2]; 5 nM): 1.07 ± 0.041
- MMEJ-attributed deletion frequency ([3]; 0.2 nM): 1.01 ± 0.086
- MMEJ-attributed deletion frequency ([3]; 0.5 nM): 0.901 ± 0.032
- MMEJ-attributed deletion frequency ([3]; 1 nM): 1.01 ± 0.076
- MMEJ-attributed deletion frequency ([3]; 2 nM): 0.864 ± 0.08
- MMEJ-attributed deletion frequency ([3]; 5 nM): 0.961 ± 0.13
- HDR ([4]; 0.2 nM): 1.1 ± 0.075
- HDR ([4]; 0.5 nM): 1.0454 ± 2.1e-05
- HDR ([4]; 1 nM): 1.08 ± 0.032
- HDR ([4]; 2 nM): 1.03 ± 0.032
- HDR ([4]; 5 nM): 1.18 ± 0.095

Structure (SMILES): CC(C)(c1ccc(O)cc1)c1ccc(O)cc1 [Bisphenol A] (in DMSO)
- cell survival ([1]; 20 nM): 1.02
- cell survival ([1]; 50 nM): 1.14
- cell survival ([1]; 100 nM): 0.953
- cell survival ([1]; 200 nM): 1.22
- cell survival ([1]; 500 nM): 1.14
- NHEJ-attributed indel frequency ([2]; 20 nM): 1 ± 0.011
- NHEJ-attributed indel frequency ([2]; 50 nM): 1.01 ± 0.014
- NHEJ-attributed indel frequency ([2]; 100 nM): 1.01 ± 0.045
- NHEJ-attributed indel frequency ([2]; 200 nM): 1.015 ± 0.0024
- NHEJ-attributed indel frequency ([2]; 500 nM): 1.02 ± 0.051
- MMEJ-attributed deletion frequency ([3]; 20 nM): 1.02 ± 0.062
- MMEJ-attributed deletion frequency ([3]; 50 nM): 0.8949 ± 0.0088
- MMEJ-attributed deletion frequency ([3]; 100 nM): 0.974 ± 0.23
- MMEJ-attributed deletion frequency ([3]; 200 nM): 0.965 ± 0.066
- MMEJ-attributed deletion frequency ([3]; 500 nM): 1.01 ± 0.15
- HDR ([4]; 20 nM): 1.025 ± 0.0061
- HDR ([4]; 50 nM): 1.01 ± 0.028
- HDR ([4]; 100 nM): 1.07 ± 0.025
- HDR ([4]; 200 nM): 1.023 ± 0.0052
- HDR ([4]; 500 nM): 0.983 ± 0.05

Structure (SMILES): CCc1c2c(nc3ccc(OC(=O)N4CCC(N5CCCCC5)CC4)cc13)-c1cc3c(c(=O)n1C2)COC(=O)[C@]3(O)CC [Irinotecan HCl Trihydrate] (in DMSO)
- cell survival ([1]; 200 nM): 0.618
- cell survival ([1]; 500 nM): 0.158
- cell survival ([1]; 1000 nM): 0.0216
- cell survival ([1]; 2000 nM): 0.00496
- cell survival ([1]; 5000 nM): 0.00337
- NHEJ-attributed indel frequency ([2]; 200 nM): 0.914 ± 0.024
- NHEJ-attributed indel frequency ([2]; 500 nM): 0.694 ± 0.021
- NHEJ-attributed indel frequency ([2]; 1000 nM): 0.617 ± 0.21
- NHEJ-attributed indel frequency ([2]; 2000 nM): 0.439 ± 0.01
- NHEJ-attributed indel frequency ([2]; 5000 nM): 0.434 ± 0.028
- MMEJ-attributed deletion frequency ([3]; 200 nM): 0.853 ± 0.043
- MMEJ-attributed deletion frequency ([3]; 500 nM): 0.688 ± 0.013
- MMEJ-attributed deletion frequency ([3]; 1000 nM): 0.566 ± 0.31
- MMEJ-attributed deletion frequency ([3]; 2000 nM): 0.541 ± 0.16
- MMEJ-attributed deletion frequency ([3]; 5000 nM): 0.575 ± 0.049
- HDR ([4]; 200 nM): 1.097 ± 0.0069
- HDR ([4]; 500 nM): 0.954 ± 0.14
- HDR ([4]; 1000 nM): 0.662 ± 0.22
- HDR ([4]; 2000 nM): 0.16683 ± 7e-05
- HDR ([4]; 5000 nM): 0.149 ± 0.016
